One block for each molecule: values may come before it.
How the values were obtained:
[1] = molecular target: T1, Phosphatidylinositol 4,5-bisphosphate 3-kinase catalytic subunit beta isoform (Homo sapiens, UniProt P42338)
[2] = molecular target: T2, Phosphatidylinositol 4,5-bisphosphate 3-kinase catalytic subunit gamma isoform (Homo sapiens, UniProt P48736)
[3] = molecular target: DNA-dependent protein kinase catalytic subunit (Homo sapiens, UniProt P78527)
[4] = molecular target: Serine/threonine-protein kinase mTOR (Homo sapiens, UniProt P42345)
[5] = molecular target: T2, Phosphatidylinositol 4,5-bisphosphate 3-kinase catalytic subunit gamma isoform; remark: listed apart in the source
[6] = molecular target: T3, Phosphatidylinositol 4,5-bisphosphate 3-kinase catalytic subunit delta isoform (Homo sapiens, UniProt O00329)
T3 sequence (O00329 whole entry): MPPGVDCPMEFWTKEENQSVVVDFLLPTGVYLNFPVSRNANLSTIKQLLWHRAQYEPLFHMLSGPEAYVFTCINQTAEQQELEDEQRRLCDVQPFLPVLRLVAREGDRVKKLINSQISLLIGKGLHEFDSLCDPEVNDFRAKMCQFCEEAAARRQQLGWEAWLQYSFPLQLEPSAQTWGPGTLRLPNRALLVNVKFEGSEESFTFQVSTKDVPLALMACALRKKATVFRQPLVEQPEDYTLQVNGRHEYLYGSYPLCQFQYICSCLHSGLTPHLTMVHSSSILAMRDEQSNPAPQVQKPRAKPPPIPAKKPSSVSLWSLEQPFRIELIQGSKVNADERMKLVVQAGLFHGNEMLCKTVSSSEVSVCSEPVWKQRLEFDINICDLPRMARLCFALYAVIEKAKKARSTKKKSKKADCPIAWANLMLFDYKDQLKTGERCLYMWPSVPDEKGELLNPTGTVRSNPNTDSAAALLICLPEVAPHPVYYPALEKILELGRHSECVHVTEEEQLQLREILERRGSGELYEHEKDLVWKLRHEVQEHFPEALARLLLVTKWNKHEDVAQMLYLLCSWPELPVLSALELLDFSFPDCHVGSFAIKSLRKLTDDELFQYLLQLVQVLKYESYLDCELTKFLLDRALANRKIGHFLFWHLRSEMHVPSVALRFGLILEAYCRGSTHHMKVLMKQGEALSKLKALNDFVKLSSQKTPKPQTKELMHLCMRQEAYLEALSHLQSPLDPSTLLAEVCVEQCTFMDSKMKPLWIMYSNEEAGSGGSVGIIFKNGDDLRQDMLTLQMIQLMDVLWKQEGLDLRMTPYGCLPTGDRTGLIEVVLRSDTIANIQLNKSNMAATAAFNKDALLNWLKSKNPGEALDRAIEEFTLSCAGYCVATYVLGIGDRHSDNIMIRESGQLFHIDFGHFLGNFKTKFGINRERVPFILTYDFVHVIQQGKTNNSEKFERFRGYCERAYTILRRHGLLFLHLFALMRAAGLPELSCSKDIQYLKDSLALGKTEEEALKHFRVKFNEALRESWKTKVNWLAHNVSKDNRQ

[7] = molecular target: T4, Phosphatidylinositol 4,5-bisphosphate 3-kinase catalytic subunit alpha isoform (Homo sapiens, UniProt P42336)
mTORC1 = mTORC1 (Homo sapiens, UniProt P42345); assay type: protein-complex assay
clinical = details: human, in vivo
cells = assay type: cell-based; details: Homo sapiens
[8] = molecular target: T4, Phosphatidylinositol 4,5-bisphosphate 3-kinase catalytic subunit alpha isoform; assay type: cell-based
[9] = molecular target: T1, Phosphatidylinositol 4,5-bisphosphate 3-kinase catalytic subunit beta isoform; assay type: cell-based

T1 sequence (P42338 whole entry, canonical isoform): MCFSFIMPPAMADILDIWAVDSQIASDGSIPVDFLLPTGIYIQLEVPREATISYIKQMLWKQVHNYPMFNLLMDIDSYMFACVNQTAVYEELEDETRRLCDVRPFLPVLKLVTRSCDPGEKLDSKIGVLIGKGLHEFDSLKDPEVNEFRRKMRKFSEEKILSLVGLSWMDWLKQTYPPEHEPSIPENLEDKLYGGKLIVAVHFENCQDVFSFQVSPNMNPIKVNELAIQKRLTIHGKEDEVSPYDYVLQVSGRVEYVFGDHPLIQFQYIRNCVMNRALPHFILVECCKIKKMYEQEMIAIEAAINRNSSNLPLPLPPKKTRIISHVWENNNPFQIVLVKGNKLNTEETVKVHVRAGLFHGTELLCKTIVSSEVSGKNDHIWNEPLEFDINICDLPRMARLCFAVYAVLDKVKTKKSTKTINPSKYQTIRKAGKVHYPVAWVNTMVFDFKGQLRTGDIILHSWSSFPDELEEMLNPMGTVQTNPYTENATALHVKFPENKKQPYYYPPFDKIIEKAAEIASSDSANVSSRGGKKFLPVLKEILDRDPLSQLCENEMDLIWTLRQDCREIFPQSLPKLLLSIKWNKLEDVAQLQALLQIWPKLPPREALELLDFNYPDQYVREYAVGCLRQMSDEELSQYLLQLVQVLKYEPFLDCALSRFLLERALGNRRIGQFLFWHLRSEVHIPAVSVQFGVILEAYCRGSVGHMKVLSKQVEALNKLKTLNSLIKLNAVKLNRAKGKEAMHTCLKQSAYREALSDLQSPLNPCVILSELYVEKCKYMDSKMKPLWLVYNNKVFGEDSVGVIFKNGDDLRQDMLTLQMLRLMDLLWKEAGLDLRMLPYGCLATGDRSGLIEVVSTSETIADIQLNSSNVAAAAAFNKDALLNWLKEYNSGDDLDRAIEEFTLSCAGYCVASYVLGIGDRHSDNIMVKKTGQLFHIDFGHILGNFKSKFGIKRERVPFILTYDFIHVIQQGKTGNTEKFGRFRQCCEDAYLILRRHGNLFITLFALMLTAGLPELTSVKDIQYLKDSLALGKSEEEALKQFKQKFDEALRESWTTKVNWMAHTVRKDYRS
Sequence of DNA-dependent protein kinase catalytic subunit (P78527 whole entry): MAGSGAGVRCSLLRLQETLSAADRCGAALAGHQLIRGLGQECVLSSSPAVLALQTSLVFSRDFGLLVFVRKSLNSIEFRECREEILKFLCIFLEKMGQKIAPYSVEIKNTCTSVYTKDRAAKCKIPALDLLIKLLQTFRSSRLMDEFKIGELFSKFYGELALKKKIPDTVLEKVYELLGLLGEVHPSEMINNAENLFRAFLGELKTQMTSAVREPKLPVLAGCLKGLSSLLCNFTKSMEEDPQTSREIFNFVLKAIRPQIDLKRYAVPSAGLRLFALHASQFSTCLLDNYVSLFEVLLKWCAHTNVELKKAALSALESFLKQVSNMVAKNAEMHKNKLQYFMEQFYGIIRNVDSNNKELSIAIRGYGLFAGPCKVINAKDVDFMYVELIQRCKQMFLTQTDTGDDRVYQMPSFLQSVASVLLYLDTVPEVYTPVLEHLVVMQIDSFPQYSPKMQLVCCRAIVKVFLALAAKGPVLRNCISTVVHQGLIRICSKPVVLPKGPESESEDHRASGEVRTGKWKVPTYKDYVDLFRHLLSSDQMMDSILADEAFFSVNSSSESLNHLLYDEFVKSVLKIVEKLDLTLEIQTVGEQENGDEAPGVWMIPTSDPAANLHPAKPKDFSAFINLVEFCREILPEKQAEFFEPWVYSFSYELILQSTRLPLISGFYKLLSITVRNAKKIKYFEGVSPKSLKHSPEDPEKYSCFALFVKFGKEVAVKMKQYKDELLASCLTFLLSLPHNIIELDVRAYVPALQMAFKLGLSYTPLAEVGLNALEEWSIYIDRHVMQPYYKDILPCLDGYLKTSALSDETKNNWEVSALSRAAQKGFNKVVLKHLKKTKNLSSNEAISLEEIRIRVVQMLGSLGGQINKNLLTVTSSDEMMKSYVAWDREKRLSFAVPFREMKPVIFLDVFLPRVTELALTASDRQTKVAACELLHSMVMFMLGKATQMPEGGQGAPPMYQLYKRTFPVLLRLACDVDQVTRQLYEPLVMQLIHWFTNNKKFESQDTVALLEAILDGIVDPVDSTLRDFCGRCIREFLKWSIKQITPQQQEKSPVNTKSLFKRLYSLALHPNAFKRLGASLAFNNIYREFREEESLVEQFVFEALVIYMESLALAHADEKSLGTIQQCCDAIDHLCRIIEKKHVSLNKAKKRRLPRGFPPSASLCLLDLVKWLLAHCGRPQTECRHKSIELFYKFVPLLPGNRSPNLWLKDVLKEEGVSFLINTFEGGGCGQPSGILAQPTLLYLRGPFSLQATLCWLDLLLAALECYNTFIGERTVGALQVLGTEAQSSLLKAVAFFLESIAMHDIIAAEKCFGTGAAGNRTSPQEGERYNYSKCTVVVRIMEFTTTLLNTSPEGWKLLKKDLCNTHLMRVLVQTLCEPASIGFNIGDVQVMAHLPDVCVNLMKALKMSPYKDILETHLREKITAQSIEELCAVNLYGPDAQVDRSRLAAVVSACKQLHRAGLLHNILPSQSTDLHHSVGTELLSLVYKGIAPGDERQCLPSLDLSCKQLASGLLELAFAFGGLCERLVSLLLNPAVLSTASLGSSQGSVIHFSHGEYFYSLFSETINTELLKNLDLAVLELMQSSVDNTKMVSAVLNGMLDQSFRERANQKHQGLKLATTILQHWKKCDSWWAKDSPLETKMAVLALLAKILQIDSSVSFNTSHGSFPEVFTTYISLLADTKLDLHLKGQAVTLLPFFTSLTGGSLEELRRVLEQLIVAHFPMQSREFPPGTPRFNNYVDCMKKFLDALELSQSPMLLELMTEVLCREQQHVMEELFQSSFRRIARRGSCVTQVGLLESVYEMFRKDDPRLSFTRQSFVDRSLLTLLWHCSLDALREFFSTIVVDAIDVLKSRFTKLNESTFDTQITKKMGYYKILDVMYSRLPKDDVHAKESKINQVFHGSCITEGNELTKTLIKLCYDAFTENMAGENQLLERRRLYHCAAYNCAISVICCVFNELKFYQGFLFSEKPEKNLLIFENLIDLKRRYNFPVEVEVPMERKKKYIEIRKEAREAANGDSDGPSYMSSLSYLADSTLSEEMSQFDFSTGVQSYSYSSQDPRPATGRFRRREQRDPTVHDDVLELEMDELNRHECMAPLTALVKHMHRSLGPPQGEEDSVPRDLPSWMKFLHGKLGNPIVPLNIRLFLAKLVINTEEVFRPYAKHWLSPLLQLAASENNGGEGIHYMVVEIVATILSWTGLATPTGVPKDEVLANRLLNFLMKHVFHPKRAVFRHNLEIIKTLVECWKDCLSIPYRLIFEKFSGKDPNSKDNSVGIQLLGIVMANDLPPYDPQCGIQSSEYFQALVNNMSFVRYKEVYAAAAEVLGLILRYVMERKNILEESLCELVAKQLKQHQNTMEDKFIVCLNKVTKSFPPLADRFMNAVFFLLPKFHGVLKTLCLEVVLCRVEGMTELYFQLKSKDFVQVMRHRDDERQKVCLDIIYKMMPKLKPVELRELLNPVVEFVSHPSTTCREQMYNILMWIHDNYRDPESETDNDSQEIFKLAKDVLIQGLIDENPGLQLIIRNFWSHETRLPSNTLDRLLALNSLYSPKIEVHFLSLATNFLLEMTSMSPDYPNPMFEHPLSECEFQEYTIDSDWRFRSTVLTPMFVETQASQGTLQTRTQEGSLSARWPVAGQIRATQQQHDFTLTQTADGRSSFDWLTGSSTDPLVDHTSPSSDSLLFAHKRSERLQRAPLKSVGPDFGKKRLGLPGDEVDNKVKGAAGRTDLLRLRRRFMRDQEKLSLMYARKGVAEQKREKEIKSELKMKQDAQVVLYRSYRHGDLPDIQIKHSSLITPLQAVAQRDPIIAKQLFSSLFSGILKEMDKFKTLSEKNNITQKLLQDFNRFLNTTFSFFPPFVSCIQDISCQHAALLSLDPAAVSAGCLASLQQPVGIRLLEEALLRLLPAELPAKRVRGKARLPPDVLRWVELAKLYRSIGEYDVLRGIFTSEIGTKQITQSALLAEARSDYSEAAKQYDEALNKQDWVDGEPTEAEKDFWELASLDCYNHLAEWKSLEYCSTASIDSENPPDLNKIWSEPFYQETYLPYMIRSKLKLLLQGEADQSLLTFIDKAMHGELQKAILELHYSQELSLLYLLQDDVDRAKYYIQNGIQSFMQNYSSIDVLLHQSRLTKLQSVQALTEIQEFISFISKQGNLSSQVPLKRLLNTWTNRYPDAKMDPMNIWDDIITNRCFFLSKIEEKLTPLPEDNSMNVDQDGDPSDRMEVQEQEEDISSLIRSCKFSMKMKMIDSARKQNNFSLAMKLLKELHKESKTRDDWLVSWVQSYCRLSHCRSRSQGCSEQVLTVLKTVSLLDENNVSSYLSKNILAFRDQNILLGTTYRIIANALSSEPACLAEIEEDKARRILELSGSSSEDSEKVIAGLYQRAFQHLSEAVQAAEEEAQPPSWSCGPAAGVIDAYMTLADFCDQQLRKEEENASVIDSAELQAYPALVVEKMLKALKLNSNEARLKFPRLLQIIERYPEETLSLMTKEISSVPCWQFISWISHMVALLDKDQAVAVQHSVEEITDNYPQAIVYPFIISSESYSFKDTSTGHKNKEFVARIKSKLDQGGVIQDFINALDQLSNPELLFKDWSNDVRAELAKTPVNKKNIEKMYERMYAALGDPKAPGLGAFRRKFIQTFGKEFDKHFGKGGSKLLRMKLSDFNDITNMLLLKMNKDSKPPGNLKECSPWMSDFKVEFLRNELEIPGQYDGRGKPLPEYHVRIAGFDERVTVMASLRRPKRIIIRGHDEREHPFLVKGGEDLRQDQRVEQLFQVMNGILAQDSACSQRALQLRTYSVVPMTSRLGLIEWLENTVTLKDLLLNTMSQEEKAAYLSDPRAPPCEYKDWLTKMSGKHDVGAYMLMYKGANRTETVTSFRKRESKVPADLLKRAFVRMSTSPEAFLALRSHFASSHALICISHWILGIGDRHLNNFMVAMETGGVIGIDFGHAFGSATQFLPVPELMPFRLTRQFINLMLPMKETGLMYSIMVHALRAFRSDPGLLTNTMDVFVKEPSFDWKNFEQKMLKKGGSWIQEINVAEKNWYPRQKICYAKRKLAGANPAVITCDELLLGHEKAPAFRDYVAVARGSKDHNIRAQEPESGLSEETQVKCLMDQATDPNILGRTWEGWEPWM

IC50 [1]: 2.8 µM
SMILES: O=Cc1ccc(N2CCOCC2)cc1O

IC50 [2]: > 10 µM
SMILES: CN1CCOc2cc(/C=C3\SC(=O)NC3=O)ccc21

IC50 [1]: 0.13 µM
SMILES: Cc1cc(Oc2ccccc2C)c2[nH]c(N3CCOCC3)cc(=O)c2c1

IC50 [1]: 0.11 µM
SMILES: Cc1cc(NCc2ccccc2C)c2nc(N3CCOCC3)cc(=O)n2c1

IC50 [1]: 0.383 µM
SMILES: Cc1ccc(S(=O)(=O)Nc2nc3ccccc3nc2Nc2ccc3nsnc3c2)cc1

SMILES: N=C(N)NCCCC(NC(=O)CCC(=O)OC[N+]1(c2cc(=O)c3cccc(-c4ccccc4)c3o2)CCOCC1)C(=O)NCC(=O)NC(CC(=O)O)C(=O)NC(CO)C(=O)[O-] (stereo not drawn)
IC50 [3]: 0.357 µM | IC50 [4]: 1.06 µM | IC50 [5]: 1.77 µM | IC50 [1]: 0.736 µM | IC50 [6]: 3.23 µM | IC50 [7]: 0.356 µM

IC50 [3]: 0.15 µM | IC50 (mTORC1): 0.19 µM
SMILES: COc1cc(Nc2nc3ccccc3nc2NS(=O)(=O)c2ccc(NC(=O)c3ccc(C)c(OC)c3)cc2)cc(OC)c1

half-life (clinical): 6 h
SMILES: COc1ccc(-c2ccc3ncc4c(c3c2)n(-c2ccc(N3CCNCC3)c(C(F)(F)F)c2)c(=O)n4C)cn1 [BGT-226 FREE BASE]

IC50 (cells): < 0.001 µM
SMILES: COc1c(OCCCN2CCOCC2)ccc2c1N=C(NC(=O)c1cnc(N)nc1)N1CCN=C21 [COPANLISIB]

IC50 [4]: > 10 µM
SMILES: CC[C@H](Nc1ncnc2[nH]cnc12)c1nc2cccc(F)c2c(=O)n1-c1ccccc1 [IDELALISIB]

IC50 [8]: 0.25 µM | IC50 [9]: 0.5 µM
SMILES: Oc1ccc(/C=C/c2cc(O)cc(O)c2)cc1 [RESVERATROL]
